Legend:
human H4 = molecular target: T1, human H4 (Homo sapiens, UniProt Q9H3N8); experiment: In vitro histamine receptor cell-based assay (aequorin bioluminescence), H4 antagonism; settings: CHO-K1 cells expressing human H4, aequorin and Gα16; histamine at EC80; read-out: H4 Antagonist EC50
T1 construct: host or cells: CHO-K1
In short: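 CHO-K1 cells stably expressing human H4, Gα16 and mitochondrial aequorin, loaded with 5 μM coelenterazine-h, preincubated 15 min at room temperature with compound, then challenged with histamine at EC80.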

human H1 = molecular target: T2, human H1 (Homo sapiens, UniProt P35367); experiment: In vitro histamine receptor cell-based assay (aequorin bioluminescence), H1 antagonism; settings: CHO-K1 cells expressing human H1 and aequorin; histamine at EC80; read-out: H1 Antagonist EC50
T2 construct: host or cells: CHO-K1
T2 sequence (P35367 whole entry): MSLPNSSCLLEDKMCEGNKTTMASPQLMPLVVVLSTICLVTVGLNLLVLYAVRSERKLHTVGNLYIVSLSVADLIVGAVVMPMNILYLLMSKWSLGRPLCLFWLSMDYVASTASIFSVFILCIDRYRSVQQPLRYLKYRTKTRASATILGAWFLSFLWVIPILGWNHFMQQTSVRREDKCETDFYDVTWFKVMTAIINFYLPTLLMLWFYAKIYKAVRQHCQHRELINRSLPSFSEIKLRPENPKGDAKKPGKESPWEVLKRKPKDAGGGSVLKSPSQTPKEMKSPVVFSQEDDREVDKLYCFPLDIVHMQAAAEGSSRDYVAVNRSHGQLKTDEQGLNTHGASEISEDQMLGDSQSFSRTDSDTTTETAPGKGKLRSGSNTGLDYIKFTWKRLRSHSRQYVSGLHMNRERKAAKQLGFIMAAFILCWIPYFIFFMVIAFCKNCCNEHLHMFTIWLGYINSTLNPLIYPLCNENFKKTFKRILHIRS
In short: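 Stable CHO-K1 lines expressing human H1 or H4 (H4 with Gα16) plus mitochondrial aequorin, loaded 4 h with 5 μM coelenterazine-h at ~21 °C. Compounds preincubated 15 min, then histamine at EC80 added; bioluminescence decrease (AUC or max–min) expressed as % of positive control (diphenhydramine for H1, JNJ7777120 for H4, 10 μM).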

[1] = tested on: Hartley VAF outbred guinea pigs; experiment: Allergic conjunctivitis in passively sensitized guinea pigs (conjunctival EPO activity); assay type: in vivo; design: key: +: a 0.01% bid dose was statistically equivalent to dexamethasone with respect to reduction of EPO activity; −: the compound was statistically inferior to dexamethasone and not different than vehicle; settings: reduction of conjunctival EPO activity vs dexamethasone; for BID activity: 0.01% bid topical, 1 hour prior to and 8 hours after ovalbumin challenge; for QD activity: ≦0.1% qd topical, 1 hour prior to ovalbumin challenge
Experimental: Male Hartley VAF outbred guinea pigs were passively sensitized to ovalbumin by a single OD subconjunctival injection of undiluted guinea pig anti-ovalbumin antiserum 24 hours before OD topical challenge with 500 μg ovalbumin in saline. Control animals were injected with saline only and challenged with ovalbumin. To determine acute phase drug efficacy, 30 min after challenge animals were clinically scored by a masked observer for severity of signs of conjunctivitis based on a standard scale. Test compounds were administered topically 1 hour prior to challenge (QD protocol), or 1 hour prior to challenge and again 8 hours after challenge (BID protocol). Twenty-four hours after challenge, animals were euthanized and conjunctivae were harvested for determination of tissue eosinophil peroxidase (EPO) concentration as a marker of allergic inflammation. Homogenates of freshly collected tissues were prepared by shaking the tissues in 2 mL round-bottom tubes containing 0.5 mL of homogenization buffer (50 mM Tris HCl, pH 8.0, 6 mM KBr) and one 5-mm stainless steel bead on a Qiagen TissueLyser at 30 Hz for 5 min. Homogenates were frozen and thawed once, then centrifuged at 10,000 rpm for 5 min. EPO activity in supernatants was measured by reacting diluted homogenates with a solution of 6 mM o-phenylenediamine substrate and 8.8 mM H2O2 in homogenization buffer for 3 min. The reaction was stopped with 4M H2SO4 and absorbances were measured at […] on a spectrophotometric plate reader. Total EPO in samples was calculated from a standard curve of recombinant human EPO in each assay. EPO activity was normalized to total protein concentration (Pierce BCA assay) in supernatants. Background EPO activity was determined from the unsensitized, antigen-challenged control group. Percent inhibition was calculated from the sensitized, antigen-challenged, vehicle-treated control group in each experiment. Ovalbumin-injected animals dosed topically with 0.1% w/v dexamethasone (dex) served as positive control. Groups were compared by ANOVA with Dunnett's or Tukey's post-hoc tests where appropriate with significance assigned at the 95% confidence level.
The table below summarizes the results.

Row | Compound | EC50 (human H4) [µM] | EC50 (human H1) [µM] | BID activity [1] | QD activity [1]
1 | Fc1cc2nc(N3CCNCC3)c3nncn3c2cc1C(F)(F)F [Example 41, 7-Fluoro-4-(piperazin-1-yl)-8-(trifluoromethyl)-[1,2,4]triazolo[4,3-a]quinoxaline] | < 10 | > 10 |  | −
2 | Fc1cc(C(F)(F)F)cc2c1nc(N1CCNCC1)c1nncn12 [Example 49, 6-Fluoro-4-(piperazin-1-yl)-8-(trifluoromethyl)-[1,2,4]triazolo[4,3-a]quinoxaline] | < 10 | > 10 |  | −
3 | Brc1ccc2nc(N3CCNCC3)c3nncn3c2c1 [Example 52, 8-bromo-4-(piperazin-1-yl)-[1,2,4]triazolo[4,3-a]quinoxaline] | < 10 | > 10 |  | −
4 | CN1CCN(c2nc3ccc(Br)cc3n3cnnc23)CC1 [Example 54, 8-bromo-4-(4-methylpiperazin-1-yl)-[1,2,4]triazolo[4,3-a]quinoxaline] | < 10 | > 10 |  | −
5 | Clc1ccc2nc(N3CCCNCC3)c3nncn3c2c1 [Example 66, 8-chloro-4-(1,4-diazepan-1-yl)-[1,2,4]triazolo[4,3-a]quinoxaline] | < 10 | > 10 |  | −
6 | Cc1nc2c3cc(Cl)c(F)cc3nc(N3CCN(C)CC3)n2n1 [Example 95, 9-Chloro-8-fluoro-2-methyl-5-(4-methylpiperazin-1-yl)-[1,2,4]triazolo[1,5-c]quinazoline] | < 10 | > 10 | − | 
7 | Cc1ccc2nc(N3CCN(C)CC3)n3nc(C)nc3c2c1 [Example 99, 2,9-Dimethyl-5-(4-methylpiperazin-1-yl)-[1,2,4]triazolo[1,5-c]quinazoline] | < 10 | > 10 | + | −
8 | Cc1nc2c3cc(C(F)(F)F)ccc3nc(N3CCNCC3)n2n1 [Example 104, 2-Methyl-5-(piperazin-1-yl)-9-(trifluoromethyl)-[1,2,4]triazolo[1,5-c]quinazoline] | < 10 | > 10 |  | −
9 | Cc1nc2c3ccc(C(F)(F)F)cc3nc(N3CCN(C)CC3)n2n1 [Example 109, 2-Methyl-5-(4-methylpiperazin-1-yl)-8-(trifluoromethyl)-[1,2,4]triazolo[1,5-c]quinazoline] | < 10 | > 10 | − | 
10 | Cc1nc2c3cc(C(F)(F)F)c(F)cc3nc(N3CCN(C)CC3)n2n1.Cl [Example 124, 8-fluoro-2-methyl-5-(4-methylpiperazin-1-yl)-9-(trifluoromethyl)-[1,2,4]triazolo[1,5-c]quinazoline hydrochloride] | < 10 | > 10 |  | −
11 | Cc1nc2c3cc(C(F)(F)F)c(F)cc3nc(N3CCNCC3)n2n1.Cl [Example 125, 8-fluoro-2-methyl-5-(piperazin-1-yl)-9-(trifluoromethyl)-[1,2,4]triazolo[1,5-c]quinazoline hydrochloride] | < 10 | > 10 |  | −
12 | Cc1nc2c3cc(F)c(C(F)(F)F)cc3nc(N3CCN(C)CC3)n2n1.Cl [Example 129, 9-fluoro-2-methyl-5-(4-methylpiperazin-1-yl)-8-(trifluoromethyl)-[1,2,4]triazolo[1,5-c]quinazoline hydrochloride] | < 10 | > 10 |  | −
13 | Cc1nc2c3cc(OC(F)(F)F)ccc3nc(N3CCN(C)CC3)n2n1.Cl [Example 133, 2-methyl-5-(4-methylpiperazin-1-yl)-9-(trifluoromethoxy)-[1,2,4]triazolo[1,5-c]quinazoline hydrochloride] | < 10 | > 10 |  | −
14 | Cc1nc2c3cc(Br)ccc3nc(N3CCNCC3)n2n1 [Example 136, 9-bromo-2-methyl-5-(piperazin-1-yl)-[1,2,4]triazolo[1,5-c]quinazoline] | < 10 | > 10 |  | −
15 | Cc1nc2c(N3CCN(C)CC3)nc3ccc(Cl)cc3c2o1 [Example 143, 8-chloro-2-methyl-4-(4-methylpiperazin-1-yl)oxazolo[4,5-c]quinoline] | < 10 | < 10 | + | −
16 | Cc1nc2c(N3CCN(C)CC3)nc3cc(F)c(F)cc3c2o1 [Example 145, 7,8-difluoro-2-methyl-4-(4-methylpiperazin-1-yl)oxazolo[4,5-c]quinoline] | < 10 | > 10 |  | −
17 | CN1CCN(c2nc3ccc(Cl)cc3c3cn(C)nc23)CC1 [Example 150, 8-Chloro-2-methyl-4-(4-methylpiperazin-1-yl)-2H-pyrazolo[3,4-c]quinoline] | < 10 | > 10 | − | 
18 | CN1CCN(c2nc3cc(Cl)ccc3c3nccnc23)CC1 [Example 250, 8-chloro-5-(4-methylpiperazin-1-yl)pyrazino[2,3-c]quinoline] | < 10 | < 10 |  | 

Now from value to compound, other results behind:

Row | EC50 (human H4) [µM] | EC50 (human H1) [µM] | Compound | BID activity [1] | QD activity [1]
19 | < 10 | > 10 | CN1CCN(c2nc3ccc(Cl)cc3n3ccnc23)CC1 [Example 7, 8-Chloro-4-(4-methylpiperazin-1-yl)imidazo[1,2-a]quinoxaline] | − | 
20 | < 10 | > 10 | Cc1ccc2nc(N3CCN(C)CC3)c3nncn3c2c1 [Example 21, 8-Methyl-4-(4-methylpiperazin-1-yl)-[1,2,4]triazolo[4,3-a]quinoxaline] | − | 
21 | < 10 | > 10 | CN1CCN(c2nc3ccc(C(F)(F)F)cc3n3cnnc23)CC1 [Example 23, 4-(4-methylpiperazin-1-yl)-8-(trifluoromethyl)-[1,2,4]triazolo[4,3-a]quinoxaline] | + | 
22 | < 10 | > 10 | CN1CCN(c2nc3ccc(C(F)(F)F)cc3n3nnnc23)CC1 [Example 27, 4-(4-methylpiperazin-1-yl)-8-(trifluoromethyl)tetrazolo[1,5-a]quinoxaline] |  | −
23 | < 10 | > 10 | CN1CCN(c2nc3cc(F)c(Cl)cc3n3cnnc23)CC1 [Example 31, 8-chloro-7-fluoro-4-(4-methylpiperazin-1-yl)-[1,2,4]triazolo[4,3-a]quinoxaline] |  | −
24 | < 10 | > 10 | Fc1cc2nc(N3CCNCC3)c3nncn3c2cc1Cl [Example 32, 8-chloro-7-fluoro-4-(piperazin-1-yl)-[1,2,4]triazolo[4,3-a]quinoxaline] | + | 
25 | < 10 | > 10 | CN1CCN(c2nc3cc(F)c(F)cc3n3cnnc23)CC1 [Example 37, 7,8-difluoro-4-(4-methylpiperazin-1-yl)-[1,2,4]triazolo[4,3-a]quinoxaline] | + | 
26 | < 10 | > 10 | CN1CCN(c2nc3cc(Cl)c(Cl)cc3n3cnnc23)CC1 [Example 39, 7,8-dichloro-4-(4-methylpiperazin-1-yl)-[1,2,4]triazolo[4,3-a]quinoxaline] | + | 

From patent publication US20120065187A1 (ALCON RESEARCH, LTD, priority 2008, published 2012)
